What was measured:
[1] = system: Clostridium difficile; assay: In vivo hamster model of pseudomembranous Clostridium difficile induced colitis; conditions: for % Weight change, Day 22 / % Mortality: days 8-14; for % Mortality: expiring by day 20
Experimental: (Suppression of normal gastrointestinal bacteria by the ciprofloxacin permitted the drug-resistant C. difficile to predominate.) Five additional hamsters were segregated as a noninfected control group.
The infected animals were divided into three groups comprising (a) 10 untreated animals; (b) 15 vancomycin-treated animals (5 each at 20, 10 and 1 mg/kg/day orally on days 8-14); and (c) 10 animals treated with the compound of Example 2 (5 each at 10 and 1 mg/kg/day on days 8-14). The subject animals were monitored for (a) body weight (infected hamsters lose significant body mass), and (b) mortality (percent expiring by day 20).

[2] = system: Streptococcus agalactiae; assay: MIC agar dilution, aerobic and facultative bacteria; conditions: Culture # 1670
[3] = system: P. cepacia; assay: as above; conditions: Culture # 1684

## CCc1c(Cl)c(OC)c(Cl)c(OC)c1C(=O)OC1C(C)OC(OCC2=CC=CCC(O)C(C)=CC(CC)C(OC3OC(C)(C)C(OC(=O)C(C)C)C(O)C3O)C(C)=CC(C)=CCC(C(C)O)OC2=O)C(OC)C1O (stereo not drawn) [Example 2, 3"', 5"'-Di-O-methyltiacumicin B]
[1]; 1 mg/kg
  body mass: maintained body mass closest to that of non-infected controls
[1]; 1 mg/kg/day
  % Weight change, Day 22: 154%
  % Mortality: 20%
[1]; 10 mg/kg/day
  % Weight change, Day 22: 140%
  % Mortality: 60%
[1]; Table 3
  treatment of antibiotic-associated colitis: effectively treat an antibiotic-associated colitis
[1]; versus untreated infected controls or vancomycin
  survival rate: higher survival rate than either untreated infected controls or in hamsters treated with vancomycin
[2]
  MIC: > 100 µg/mL
[3]
  MIC: > 100 µg/mL
